Test results from article PMC11338008, “Development and validation of CYP26A1 inhibition assay for high-throughput screening” (Biotechnology journal, 2024).
“Also recorded” adds a separate entry of the source.

Tested on: CYP26B1, CYP1A2, CYP3A4, CYP2C9, CYP2C19, CYP2D6
Assay: Selectivity across other P450-Glo CYP assays (heatmap, Figure 5)
Conditions: compared with CYP26A1 assay
Procedure: The CYP26B1 assay was a custom assay prepared as described above except it contained recombinant human CYP26B1 co-expressed with POR in E. coli (Cypex/BioIVT, Dundee, Scotland, UK; catalog # CYP071) in place of the Cyp26a1 sequence. […] The luminescence signal in each well was measured using a ViewLux plate reader.

SMILES	activity pattern / selectivity across CYP assays, in words
OC(Cn1cncn1)(Cn1cncn1)c1ccc(F)cc1F [Fluconazole]	inhibitory effects in the CYP26A1 assay similar to their activity patterns on CYP26B1, CYP3A4, CYP2C9, and CYP2C19
CCCN(CCOc1c(Cl)cc(Cl)cc1Cl)C(=O)n1ccnc1 [Prochloraz]	inhibitory effects in the CYP26A1 assay similar to their activity patterns on CYP26B1, CYP3A4, CYP2C9, and CYP2C19
CCC(CC)C(c1ccc(Nc2nc3ccccc3s2)cc1)n1cncn1 (centres unmarked) [R115866/Talarozole, Talarozole]	inhibitory effects in the CYP26A1 assay similar to their activity patterns on CYP26B1, CYP3A4, CYP2C9, and CYP2C19; also recorded: broad-spectrum inhibition across various CYP enzymes; also recorded: significant potency in both CYP26A1/B1 and CYP3A4 assays
CC(C)(C)C(=O)C(Oc1ccc(Cl)cc1)n1cncn1 (centres unmarked) [Triadimefon]	inhibitory effects in the CYP26A1 assay similar to their activity patterns on CYP26B1, CYP3A4, CYP2C9, and CYP2C19
CCCOC/C(=N\c1ccc(Cl)cc1C(F)(F)F)n1ccnc1 [Triflumizole]	inhibitory effects in the CYP26A1 assay similar to their activity patterns on CYP26B1, CYP3A4, CYP2C9, and CYP2C19
